Key:
mouse [1] = settings: Carcinogenicity; cd1; Oral; [Not Specified]; group: systemic; systemic / in life observation / body weight / body weight gain
dog [2] = settings: Chronic toxicity, beagle, Oral, Feed, dose end: 52 week, group: systemic
rat [3] = settings: Subchronic oral toxicity in rodents, wistar, Feed, dose end: 90 day, group: systemic, systemic / in life observation / body weight / body weight + systemic / in life observation / body weight / body weight gain + systemic / in…
rabbit [4] = settings: Prenatal developmental toxicity study, new zealand white, Oral, Gavage/Intubation, dose end: 19 GD
dog [5] = settings: Subchronic oral toxicity in nonrodent, beagle, Feed, dose end: 13 week, group: systemic
rat [6] = settings: Combined chronic toxicity/carcinogenicity; wistar; Oral; Feed; dose end: 104 week; group: systemic; systemic / in life observation / body weight / body weight + systemic / in life observation / body weight / body weight gain
rat [7] = settings: Prenatal developmental toxicity study, sprague dawley, Oral, Gavage/Intubation, dose end: 15 GD
rat [8] = settings: Multigenerational reproductive toxicity study, wistar, Oral, Feed, dose end: 2 generation
rat [9] = settings: Subchronic oral toxicity in rodents, sprague dawley, Feed, dose end: 90 day, group: systemic, systemic / clinical chemistry / albumin / albumin + systemic / in life observation / body weight / body weight gain + systemic / organ …
dog [10] = settings: Chronic toxicity; beagle; Oral; Feed; dose end: 104 week; group: systemic; systemic / clinical chemistry / alanine aminotransferase (alt/sgpt) / alanine aminotransferase (alt/sgpt) + systemic / clinical chemistry / …
mouse [11] = settings: Carcinogenicity, cd1, Oral, Feed, dose end: 80 week, group: systemic
rat [12] = settings: Combined chronic toxicity/carcinogenicity, sprague dawley, Oral, Feed, dose end: 104 week, group: systemic
rabbit [13] = settings: Prenatal developmental toxicity study, new zealand white, Oral, Gavage/Intubation, dose end: 18 GD
rat [14] = settings: Subchronic oral toxicity in rodents, wistar, Feed, dose end: 90 day, group: systemic
dog [15] = settings: Subchronic oral toxicity in nonrodent, beagle, Feed, dose end: 118 day, group: systemic
rat [16] = settings: Prenatal developmental toxicity study, sprague dawley, Oral, Gavage/Intubation, dose end: 19 GD
dog [17] = settings: Subchronic oral toxicity in nonrodent, beagle, Capsule, dose end: 96 day, group: systemic, systemic / in life observation / body weight / body weight gain + systemic / in life observation / clinical signs / emaciation + systemic / …
rat [18] = settings: Sub-acute dermal toxicity, sprague dawley, Topical, dose end: 21 day, group: systemic
[19] = systemic / in life observation / food consumption / food consumption
[20] = group: developmental, developmental / developmental malformation / bone / supernumerary + developmental / developmental malformation / bone / extra ossification …
[21] = group: maternal, systemic / in life observation / body weight / body weight gain + systemic / in life observation / clinical signs / abnormal feces
[22] = group: maternal, systemic / in life observation / body weight / body weight gain + systemic / in life observation / clinical signs / abnormal feces + …
[23] = systemic / pathology microscopic / bone marrow / hyperplasia + systemic / pathology microscopic / liver / hematopoietic cell proliferation
[24] = systemic / pathology microscopic / bone marrow / hyperplasia + systemic / pathology microscopic / liver / hematopoietic cell proliferation…
[25] = group: developmental, developmental / developmental malformation / bone / incomplete ossification + systemic / in life observation / body weight / fetal weight
[26] = group: maternal, systemic / in life observation / body weight / body weight gain + systemic / in life observation / food consumption / food consumption
[27] = group: offspring, developmental / developmental malformation / general / runts + systemic / in life observation / body weight / offspring (pup) weight + …
[28] = group: offspring, developmental / developmental malformation / general / runts + systemic / organ weight / thymus / absolute + systemic / organ weight / …
[29] = group: reproductive, reproductive / offspring survival early / birth index / live birth index
[30] = systemic / organ weight / liver / absolute
[31] = systemic / organ weight / liver / absolute + systemic / organ weight / liver / relative to body weight
[32] = systemic / in life observation / body weight / body weight gain
[33] = systemic / pathology microscopic / testes / adenoma + systemic / in life observation / body weight / body weight + systemic / in life …
[34] = group: developmental, developmental / developmental malformation / bone / incomplete ossification
[35] = group: maternal, reproductive / reproductive performance / postimplantation loss / postimplantation loss + reproductive / reproductive performance / …
[36] = systemic / clinical chemistry / alanine aminotransferase (alt/sgpt) / alanine aminotransferase (alt/sgpt) + systemic / clinical chemistry / …
[37] = systemic / clinical chemistry / creatinine / creatinine + systemic / clinical chemistry / urea nitrogen / urea nitrogen
[38] = systemic / clinical chemistry / creatinine / creatinine + systemic / clinical chemistry / urea nitrogen / urea nitrogen + systemic / …
[39] = group: developmental, developmental / developmental malformation / bone / bent + developmental / developmental malformation / bone / full supernumerary + …
[40] = group: maternal, reproductive / reproductive performance / resorptions / resorptions + systemic / in life observation / clinical signs / abnormal movements…
[41] = systemic / in life observation / clinical signs / erythema

Structure (SMILES): C/C(=N\NC(=O)Nc1cc(F)cc(F)c1)c1ncccc1C(=O)O [Diflufenzopyr]
- LEL (mouse [1]): 1000 mg/kg/day
- LOAEL (mouse [1]): > 1000 mg/kg/day
- NEL (mouse [1]): 500 mg/kg/day
- NOAEL (mouse [1]): ≥ 1000 mg/kg/day
- LOAEL (dog [2]; systemic / hematology / reticulocyte / reticulocyte + systemic / pathology microscopic / bone marrow / hyperplasia): 299 mg/kg/day
- NOAEL (dog [2]; systemic / hematology / reticulocyte / reticulocyte + systemic / pathology microscopic / bone marrow / hyperplasia + systemic / hematology…): 26 mg/kg/day
- LEL (dog [2]; [19]): 26 mg/kg/day
- NEL (dog [2]; [19]): < 26 mg/kg/day
- LEL (rat [3]): 725 mg/kg/day
- LOAEL (rat [3]): 725 mg/kg/day
- NEL (rat [3]): 352 mg/kg/day
- NOAEL (rat [3]): 352 mg/kg/day
- LOAEL (rabbit [4]; group: developmental, developmental / developmental malformation / bone / supernumerary): 300 mg/kg/day
- LEL (rabbit [4]; [20]): 300 mg/kg/day
- NEL (rabbit [4]; [20]): 100 mg/kg/day
- NOAEL (rabbit [4]; [20]): 100 mg/kg/day
- LEL (rabbit [4]; [21]): 100 mg/kg/day
- LOAEL (rabbit [4]; [21]): 100 mg/kg/day
- NEL (rabbit [4]; [22]): 30 mg/kg/day
- NOAEL (rabbit [4]; [22]): 30 mg/kg/day
- LEL (dog [5]; [23]): 403 mg/kg/day
- LOAEL (dog [5]; [23]): 403 mg/kg/day
- NEL (dog [5]; [24]): 58 mg/kg/day
- NOAEL (dog [5]; [24]): 58 mg/kg/day
- LEL (rat [6]): 69 mg/kg/day
- LOAEL (rat [6]): > 518 mg/kg/day
- NEL (rat [6]): 22 mg/kg/day
- NOAEL (rat [6]): ≥ 518 mg/kg/day
- LEL (rat [7]; [25]): 1000 mg/kg/day
- LOAEL (rat [7]; [25]): 1000 mg/kg/day
- NEL (rat [7]; [25]): 300 mg/kg/day
- NOAEL (rat [7]; [25]): 300 mg/kg/day
- LEL (rat [7]; [26]): 1000 mg/kg/day
- LOAEL (rat [7]; [26]): 1000 mg/kg/day
- NEL (rat [7]; [26]): 300 mg/kg/day
- NOAEL (rat [7]; [26]): 300 mg/kg/day
- LEL (rat [8]; [27]): 552 mg/kg/day
- LOAEL (rat [8]; [27]): 552 mg/kg/day
- NEL (rat [8]; [28]): 126 mg/kg/day
- NOAEL (rat [8]; [28]): 126 mg/kg/day
- LEL (rat [8]; [29]): 552 mg/kg/day
- LOAEL (rat [8]; [29]): 552 mg/kg/day
- NEL (rat [8]; [29]): 126 mg/kg/day
- NOAEL (rat [8]; [29]): 126 mg/kg/day

Structure (SMILES): CCOC1Oc2ccc(OS(C)(=O)=O)cc2C1(C)C (configuration not stated) [Ethofumesate]
- LEL (rat [9]): 1900 mg/kg/day
- LOAEL (rat [9]): 1900 mg/kg/day
- NEL (rat [9]): 190 mg/kg/day
- NOAEL (rat [9]): 190 mg/kg/day
- LEL (dog [10]): 619 mg/kg/day
- LOAEL (dog [10]): 619 mg/kg/day
- NEL (dog [10]): 109 mg/kg/day
- NOAEL (dog [10]): 109 mg/kg/day
- LEL (mouse [11]; [30]): 204 mg/kg/day
- NEL (mouse [11]; [30]): < 204 mg/kg/day
- LOAEL (mouse [11]; [31]): > 2140 mg/kg/day
- NOAEL (mouse [11]; [31]): ≥ 2140 mg/kg/day
- LOAEL (rat [12]; [32]): 469 mg/kg/day
- NOAEL (rat [12]; systemic / in life observation / body weight / body weight gain + systemic / clinical chemistry / alkaline phosphatase (alp/alk) / alkaline …): 127 mg/kg/day
- LEL (rat [12]; [33]): 97 mg/kg/day
- NEL (rat [12]; [33]): < 97 mg/kg/day
- LEL (rabbit [13]; [34]): 300 mg/kg/day
- LOAEL (rabbit [13]; [34]): 300 mg/kg/day
- NEL (rabbit [13]; [34]): 30 mg/kg/day
- NOAEL (rabbit [13]; [34]): 30 mg/kg/day
- LEL (rabbit [13]; [35]): 300 mg/kg/day
- LOAEL (rabbit [13]; [35]): 300 mg/kg/day
- NEL (rabbit [13]; [35]): 30 mg/kg/day
- NOAEL (rabbit [13]; [35]): 30 mg/kg/day

Structure (SMILES): CNC.Cc1cc(Cl)ccc1OCC(=O)O [MCPA-dimethylammonium]
- LOAEL (rat [14]; [36]): 208 mg/kg/day
- NOAEL (rat [14]; [36]): 42 mg/kg/day
- LEL (rat [14]; [31]): 4 mg/kg/day
- NEL (rat [14]; [31]): < 4 mg/kg/day
- LEL (dog [15]; [37]): 2.4 mg/kg/day
- LOAEL (dog [15]; [37]): 2.4 mg/kg/day
- NEL (dog [15]; [38]): 0.6 mg/kg/day
- NOAEL (dog [15]; [38]): 0.6 mg/kg/day
- LEL (rat [16]; [39]): 185 mg/kg/day
- LOAEL (rat [16]; [39]): 185 mg/kg/day
- NEL (rat [16]; [39]): 62 mg/kg/day
- NOAEL (rat [16]; [39]): 62 mg/kg/day
- LEL (rat [16]; [40]): 185 mg/kg/day
- LOAEL (rat [16]; [40]): 185 mg/kg/day
- NEL (rat [16]; [40]): 62 mg/kg/day
- NOAEL (rat [16]; [40]): 62 mg/kg/day

Structure (SMILES): CCCCCCCCCCCCN=C(N)N [Dodecylguanidine]
- LEL (dog [17]): 100 mg/kg/day
- LOAEL (dog [17]): 100 mg/kg/day
- NEL (dog [17]): 25 mg/kg/day
- NOAEL (dog [17]): 25 mg/kg/day
- LOAEL (rat [18]; [32]): 50 mg/kg/day
- NOAEL (rat [18]; systemic / in life observation / body weight / body weight gain + systemic / in life observation / clinical signs / desquamation + systemic…): 25 mg/kg/day
- LEL (rat [18]; [41]): 12.5 mg/kg/day
- NEL (rat [18]; [41]): < 12.5 mg/kg/day

From EPA's ToxRefDB 2
